The text below walks through data of patent US6667163B2, “Polynucleotide sequences encoding mouse sphingosine-1-phosphate phosphatase” (Merck & Co., Inc., priority 2000, dated 2003).

Series [1] deals with Yeast (lbp1Δ::LEU2 sur2-2). As to the kind of experiment: Australifungin sensitivity, microtiter broth dilution assay in transformed yeast. The format is cell-based. The protocol:
Yeast cells defective in LBP1 shunt sphingolipid metabolites into phosphatidylethanolamine and phosphatidylcholine synthesis and become extremely sensitive to ceramide synthase inhibition by the antifungal agent, australifungin. To test whether the mouse SPP phosphatases can substitute for the function of LBP1, mSPP1pRS414-ADH, mSPP1bpRS414-ADH, or control vector (pRS414-ADH) were transformed into lbp1Δ::LEU2sur2-2 and sensitivity to australifungin was determined using a microtiter broth dilution assay. Transformants were incubated overnight in Synthetic Complete-Tryptophan (SC-TRP) Yeast Nitrogen Base medium (DIFCO) containing 2% glucose and 0.078% tryptophan-free supplement mixture (BIO101) at […]. Cells were inoculated at an OD600=0.001 (˜1×10^4 yeast cells/ml), and serial 2-fold dilutions of australifungin were made from 5 μg/ml. Growth after 48 h at 30° C. was measured by absorbance readings with a Rainbow spectrometer (TECAN).
A general note: Broth dilution looks for growth in wells or tubes with falling amounts of substance.

Series [2] deals with T1, mSPP1 (Mus musculus, UniProt Q9JI99).
T1 construct: expressed in transfected cells; host or cells: HEK293 (human embryonic kidney), transient CaCl2 transfection with mSPP1-pcDNA3.1; membrane pellet (40,000 x g)
T1 sequence (Q9JI99 1-430): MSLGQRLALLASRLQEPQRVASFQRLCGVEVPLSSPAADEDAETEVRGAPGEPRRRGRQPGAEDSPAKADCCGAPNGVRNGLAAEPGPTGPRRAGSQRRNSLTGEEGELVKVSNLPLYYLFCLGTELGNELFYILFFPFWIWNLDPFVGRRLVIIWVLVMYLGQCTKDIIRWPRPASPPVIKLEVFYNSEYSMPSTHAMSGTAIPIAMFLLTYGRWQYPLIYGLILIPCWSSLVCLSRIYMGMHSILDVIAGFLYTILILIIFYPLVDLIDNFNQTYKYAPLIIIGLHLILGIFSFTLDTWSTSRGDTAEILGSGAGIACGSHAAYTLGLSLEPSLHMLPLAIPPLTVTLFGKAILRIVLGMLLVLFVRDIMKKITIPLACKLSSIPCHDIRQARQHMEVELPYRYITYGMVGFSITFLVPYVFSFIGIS
The series can be described thus: Substrate degradation by membrane fractions from HEK293 cells transfected with mSPP1. The series is classed as biochemical, murine.

The test system of series [3] is [3H]dihydrosphingosine-1-phosphate. The series can be described thus: Dihydrosphingosine-1-phosphate phosphohydrolase activity in microsomal membranes of transformed yeast. Conditions: yeast lbp1Δ::LEU2 sur2-2 expressing the protein, compared to the vector control. The format is biochemical. The source says: To test whether mSPP1 and mSPP1b encoded SPP phosphatases with properties similar to yeast Lbp1p, the mouse genes were subcloned into pRS414-ADH for expression of the genes in LBP1 mutants under the control of a strong, constitutive yeast promoter (ADH). The resulting plasmids were mSPP1pRS414-ADH and mSPP1bpRS414-ADH. Yeast (lbp1Δ::LEU2 sur2-2) were transformed with mSPP1pRS414-ADH, mSPP1bpRS414-ADH, or control vector (pRS414-ADH) using the lithium acetate/polyethylene glycol procedure and plated onto Synthetic Complete-Tryptophan (SC-TRP) Yeast Nitrogen Base medium (DIFCO) containing 1.5% agar, 2% glucose and 0.078% tryptophan-free supplement mixture (BIO101). Transformants were inoculated into SC-TRP media and incubated overnight at 30° C. to an OD600 of 1.0. […]
Microsomal membranes were collected by ultracentrifugation (100,000×g, 1 hour) and suspended in disruption buffer containing 20% glycerol. Dihydrosphingosine-1-phosphate phosphohydrolase activity was measured in 200 μl containing 50 mM KPO4 pH 7.2, 0.02% tergitol (NP-40), 2 μM [^3H]dihydrosphingosine-1-phosphate (40,000 cpm), 2 mM semicarbazide, and 0.3 to 5 μg of membrane protein. […] One ml of chloroform:methanol (3:2) was added and 50 μl of the chloroform layer was counted by liquid scintillation.

The test system is the same in series [4]. As to the kind of experiment: Dihydrosphingosine phosphate phosphohydrolase activity in membranes of transfected HEK293 cells. The series is classed as biochemical, Human. To be noted: compared to vector transfected cells or mSPP1b transfected cells. The protocol:
Microsomal membranes were collected by ultracentrifugation (100,000×g, 1 hour) and suspended in disruption buffer containing 20% glycerol. Dihydrosphingosine-1-phosphate phosphohydrolase activity was measured in 200 μl containing 50 mM KPO4 pH 7.2, 0.02% tergitol (NP-40), 2 μM [^3H]dihydrosphingosine-1-phosphate (40,000 cpm), 2 mM semicarbazide, and 0.3 to 5 μg of membrane protein. Following a 45 min incubation at 37° C., the assay was terminated with 200 μl 7 M NH4OH. One ml of chloroform:methanol (3:2) was added and 50 μl of the chloroform layer was counted by liquid scintillation.
Transfection-quality DNA was prepared for plasmids mSPP1-pcDNA3.1 and mSPP1b-pcDNA3.1 using endotoxin-free QIAGEN Maxi protocol (QIAGEN, Chatsworth, Calif.). Human embryonic kidney (HEK293) cells were maintained in high glucose Dulbecco's modified Eagle's medium (DMEM) containing 100 U/ml penicillin, 100 μg/ml streptomycin and 2 mM L-glutamine supplemented with 10% fetal bovine serum. Cells (1×10^6) were transfected with 20 μg of plasmid DNA by the CaCl2 procedure using a kit from SPECIALTY MEDIA (Lavallette, N.J.). Cells were harvested 48 hours after transfection with enzyme-free dissociation solution (SPECIALTY MEDIA, Lavallette, N.J.). […] Dihydrosphingosine phosphate phosphohydrolase activity was measured as described in Example 4.

The subject of series [5] is NIH 3T3 fibroblasts. As to the kind of experiment: Enforced expression of mSPP1 in NIH 3T3 fibroblasts: survival and apoptosis. The format is cell-based. To be noted: enforced expression in NIH 3T3 fibroblasts.

Regarding `CCCCCC[C@@H](C)C1=C(O)C(=O)[C@@H]2[C@H](O)[C@H](C)C[C@H](O)[C@H]2[C@]1(C)C(=O)/C=C\O` [australifungin], in series [1] (lbp1Δsur2-2 mutant expressing mSPP1, compared to vector transformed mutants, growth after 48 h at 30° C.), the “increase in the MIC90 of australifungin” value was 64 fold. In series [1] (lbp1Δsur2-2 mutant expressing mSPP1b), the australifungin sensitivity result was “did not alter”.

Regarding lysophosphatidic acid, the “degradation of substrate by mSPP1 membrane fractions” value in series [2] is given as “not”.

On to phosphatidic acid, for which the “degradation of substrate by mSPP1 membrane fractions” value in series [2] is listed as “not”.

`CCCCCCCCCCCCC/C=C/[C@@H](O)[C@@H](N)COP(=O)(O)O` [SPP, Sphingosine-1-phosphate]: the “degradation of substrate by mSPP1 membrane fractions” value in series [2] is “markedly degraded”.

For the molecule ceramide-1-phosphate, the “degradation of substrate by mSPP1 membrane fractions” value in series [2] is listed as “not”.

B1: mSPP1b: murine mSPP1b protein of SEQ ID NO:4, divergent 5′ end, lacks the activity of mSPP1; counterscreen or negative control (protein)
chain: MGEELGHCVQMRKSNERGKRFREQRVQRAQGKVSHHTKEEEETRVRQMSQGWEEKEYGYYLFCLGTELGNELFYILFFPFWIWNLDPFVGRRLVIIWVLVMYLGQCTKDIIRWPRPASPPVIKLEVFYNSEYSMPSTHAMSGTAIPIAMFLLTYGRWQYPLIYGLILIPCWSSLVCLSRIYMGMHSILDVIAGFLYTILILIIFYPLVDLIDNFNQTYKYAPLIIIGLHLILGIFSFTLDTWSTSRGDTAEILGSGAGIACGSHAAYTLGLSLEPSLHMLPLAIPPLTVTLFGKAILRIVLGMLLVLFVRDIMKKITIPLACKLSSIPCHDIRQARQHMEVELPYRYITYGMVGFSITFLVPYVFSFIGIS
As to B1, the “increase in membrane dihydrosphingosine-1-phosphate phosphohydrolase activity” value in series [3] was “same level of phosphohydrolase activity as control”.

B2: mSPP1: murine sphingosine-1-phosphate phosphatase, recombinant enzyme having the amino acid sequence of SEQ ID NO:3 (protein)
chain: MSLGQRLALLASRLQEPQRVASFQRLCGVEVPLSSPAADEDAETEVRGAPGEPRRRGRQPGAEDSPAKADCCGAPNGVRNGLAAEPGPTGPRRAGSQRRNSLTGEEGELVKVSNLPLYYLFCLGTELGNELFYILFFPFWIWNLDPFVGRRLVIIWVLVMYLGQCTKDIIRWPRPASPPVIKLEVFYNSEYSMPSTHAMSGTAIPIAMFLLTYGRWQYPLIYGLILIPCWSSLVCLSRIYMGMHSILDVIAGFLYTILILIIFYPLVDLIDNFNQTYKYAPLIIIGLHLILGIFSFTLDTWSTSRGDTAEILGSGAGIACGSHAAYTLGLSLEPSLHMLPLAIPPLTVTLFGKAILRIVLGMLLVLFVRDIMKKITIPLACKLSSIPCHDIRQARQHMEVELPYRYITYGMVGFSITFLVPYVFSFIGIS
On to B2, for which, in series [3], the “increase in membrane dihydrosphingosine-1-phosphate phosphohydrolase activity” value lay in the range of 3 to 4 fold. Further, the “increase in dihydrosphingosine phosphate phosphohydrolase activity” value in series [4] is 4 to 5 fold. For the same molecule, in series [5], the apoptosis result is on record as “induced the characteristic traits of apoptosis” and the cell survival result is given as “markedly decreased survival”.
